Results as given in patent US20070212700A1, “Methods of using and analyzing biological sequence data” (THE BOARD OF REGENTS OF THE UNIVERSITY OF TEXAS SYSTEM, priority 2005, published 2007).

Key:
[1] = test system: biotinylated oriented peptide libraries (group I PPxY, group II PPLP, group III PPR, group IV pS/pT-P); assay: Oriented peptide library binding assay (ELISA) for WW domain specificity
Description: FIGS. 25A-D: Assays for binding affinity and specificity in WW domains. FIG. 25A: five N-terminal biotinylated oriented peptide libraries were constructed to present either a proline-only control (biotin-Z-GMAxxxxPxxxxAKKK (SEQ ID NO:162)) or the four different characteristic WW domain binding motifs: group I-oriented (biotin-Z-GMAxxxPPxYxxxAKKK-C (SEQ ID NO:163)), group II-oriented (biotin-Z-GMAxxxPPLPxxxAKKK (SEQ ID NO:164)), group III-oriented (biotin-Z-GMAxxxPPRxxxAKKK (SEQ ID NO:165)), and group IV-oriented (biotin-Z-GMAxxxxpSPxxxxAKKK (SEQ ID NO:166)), where Z is 6-aminohexanoic acid, pS is phosphoserine, and x denotes all amino acids except Cys. Binding to these peptides indicte affinity for the consensus motifes listed in FIG. 25A (SEQ ID NO:167-171). […] FIG. 25C: binding specificity of artificial WW domains from the CC55 set. Binding is reported in fold above background binding in the absence of target peptides. Shown are the mean and standard deviation of at least four independent assays. FIG. 25D: the binding specificity of additional artificial and natural WW domains.
An oriented peptide library binding assay was developed for measuring WW domain specificity, and a set of natural and artificial sequences was studied. Four biotinylated degenerate peptide libraries were constructed, each oriented around one group-specific WW recognition motif, and binding was detected using an ELISA assay (see FIGS. 25A and 25B). For example, the group I oriented peptide library was biotin-Z-GMAxxxPPxYxxxAKKK (SEQ ID NO:163), where Z is 6-aminohexanoic acid and x stands for any amino acid except cysteine (theoretical degeneracy of 8.9×10^8 sequences). A fifth proline-oriented library was also made as a control for non-specific binding. Natural WW domains that folded in the work described above were subjected to this assay. […] Similarly, the assay confirms known group III (FE65) and IV (Pin1) domains.

PPxY-containing peptide = assay: Peptide binding to wild-type and mutant Nedd4.3 WW domains by isothermal titration calorimetry (double mutant cycle); conditions: Nedd4.3 WW domain
Description: FIGS. 6A-C: A spatially distributed network underlying WW specificity. FIG. 6A: two views of the Nedd4.3 WW domain (in blue CPK), with residues comprising the cluster of eight co-evolving residues as red CPK with a transparent van der Waals surface. The cluster forms a physically connected network that links binding site residues at positions 21, 23, and 28 with the opposite side residues at positions 3 and 4 through a few intervening residues at positions 6, 8, and 22. FIG. 6B: the thermodynamic mutant cycle formalism for measuring energetic coupling between a pair of mutations. The method involves measuring equilibrium dissociation constants for peptide binding for four proteins: wild-type (WT), a mutation at one site (M1), a mutation at a second site (M2), and the double mutation M1, M2. The fold effect of M1 is calculated for the wild type background (X1) or for the background of the second mutation (X2). The thermodynamic coupling parameter Ω is defined as the ratio of these two fold effects (X1/X2)— the degree to which the effect of one mutation depends on the second. FIG. 6C: double mutant cycle analysis of co-evolving positions in the N39 (Nedd4.3) WW domain. […] Peptide binding to wild-type and mutant WW domains was measured using isothermal titration calorimetery. […]

Row | fold effect of single mutation on peptide binding relative to wild-type (PPxY-containing peptide; PPxY-containing peptide, ITC) | effect of mutation in the background of T28A (PPxY-containing peptide; mutant cycle) | Substance | binding specificity / binding class [1]
1 |  |  | Nedd4.3: natural group I WW domain, Nedd4.3 (N39) (GPLPPGWEERTHTDGRVFFINHNIKKTQWEDPRM) | specific interaction with the PPxY-containing sequences
2 | 5.15+/−0.99 fold | diminished | L3A: alanine mutant at position 3 of the Nedd4.3 WW domain (GPAPPGWEERTHTDGRVFFINHNIKKTQWEDPRM) | 
3 |  |  | CC55-15: artificial WW domain from the CC55 set (SEQ ID NO:35) (AGLPQGWEAAFDNSGAVYYVNPNTGKTQWERPCLEN) | group III binding profile
4 |  |  | FE65: natural WW domain, known group III (SDLPAGWMRVQDTSGTYYWHIPTGTTQWEPPGR) | group III
